PubChem BioAssay (NCI)
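In this assay, cells in 96-well plates receive the compound at five concentrations for 48 hours. Endpoints are linearly interpolated between the surrounding concentrations. At the GI50, growth is halved. The concentration for full growth arrest is given as TGI.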

Columns and labels:
Assay in all cases: DTP human tumour cell line panel, 48 h
NCI/ADR-RES ovarian = test system: NCI/ADR-RES ovarian
SK-MEL-28 melanoma = test system: SK-MEL-28 melanoma
EKVX NSCLC = test system: EKVX NSCLC
UO-31 renal = test system: UO-31 renal
K-562 leukemia = test system: K-562 leukemia
CCRF-CEM leukemia = test system: CCRF-CEM leukemia
786-0 renal = test system: 786-0 renal
TK-10 renal = test system: TK-10 renal
MALME-3M melanoma = test system: MALME-3M melanoma
SR leukemia = test system: SR leukemia

SMILES | GI50 (NCI/ADR-RES ovarian) [µM] | TGI (NCI/ADR-RES ovarian) [µM] | GI50 (SK-MEL-28 melanoma) [µM] | TGI (SK-MEL-28 melanoma) [µM] | GI50 (EKVX NSCLC) [µM] | TGI (EKVX NSCLC) [µM] | GI50 (UO-31 renal) [µM] | TGI (UO-31 renal) [µM] | GI50 (K-562 leukemia) [µM] | TGI (K-562 leukemia) [µM] | GI50 (CCRF-CEM leukemia) [µM] | TGI (CCRF-CEM leukemia) [µM] | GI50 (786-0 renal) [µM] | TGI (786-0 renal) [µM] | TGI (TK-10 renal) [µM] | TGI (MALME-3M melanoma) [µM] | TGI (SR leukemia) [µM] | GI50 (SR leukemia) [µM] | GI50 (TK-10 renal) [µM] | GI50 (MALME-3M melanoma) [µM]
Nc1nc2cc3ccc(C4CC(O)C(CO)O4)cc3cc2c(=O)[nH]1 (configuration not stated) | > 100 | > 100 | > 100 | > 100 | > 100 | > 100 | 94.6 | > 100 | > 100 | > 100 | 41.4 | > 100 | > 100 | > 100 |  |  |  |  |  | 
CC(=O)C1C(=O)NC(=O)C1=O (configuration not stated) |  |  |  | > 100 |  | > 100 |  | > 100 |  | > 100 |  |  |  | > 100 | > 100 | > 100 |  |  |  | 
CC(=O)O[C@@H]1[C@@H](O)C2=C3[C@]4(C)[C@@H]1C(C)(C)C(=O)C[C@@H]4[C@]3(O)[C@H](OC(C)=O)[C@@]1(C[C@@H]1C)C2=O |  | 62.5 |  | 37.1 |  | 40.7 |  | 33.9 |  | > 100 |  | 34.1 |  | 32.4 | 29.7 | 29.3 |  |  |  | 
CN(C)CCNC(=O)c1cccc2c(Nc3ccc(S(N)(=O)=O)cc3)c3ccccc3nc12 |  |  |  | 3 |  | 10.2 |  | 7.44 |  | 9.61 |  |  |  | 4.92 |  | 3.88 | > 100 |  |  | 
COC(=O)CCC(=O)Nc1cc(Cl)ccc1Cl |  |  |  | > 100 |  | > 100 |  | > 100 |  | > 100 |  | > 100 |  | > 100 |  | > 100 | > 100 |  |  | 
CN(/N=C/c1cccc2cccnc12)c1ccc([N+](=O)[O-])cc1 |  |  |  | > 100 |  | > 100 |  |  |  | > 100 |  | > 100 |  | > 100 | > 100 | > 100 |  |  |  | 
CCN1C2=NCCN2S(=O)(=O)c2ccccc21 |  | > 100 |  | > 100 |  | > 100 |  | > 100 |  | > 100 |  | > 100 |  | > 100 | > 100 |  |  |  |  | 
O/N=C1/C(=C/c2ccc(Oc3ccccc3)cc2)CCCC1C(NO)c1ccc(Oc2ccccc2)cc1 (configuration not stated) |  |  |  | > 100 |  | > 100 |  | 76.4 |  | > 100 |  | 61.2 |  | > 100 | > 100 | > 100 |  |  |  | 
Cc1cc2cn3c4ccc(O)cc4[nH]c(=O)c3c2cc1C |  |  | 0.0346 | 1.74 | 0.403 | 1.85 | 0.0228 | 1.84 |  | 0.329 | 0.0418 | 1.81 | 0.0696 | 1.83 | 2.13 |  | 0.415 | 0.0342 | 0.667 | 
Cc1nc(-c2ccccc2)cc2c1c(=O)oc1ccccc12 |  |  |  | > 100 |  | > 100 |  | > 100 |  | > 100 |  | > 100 |  | > 100 |  | > 100 | > 100 |  |  | 
O=C1c2ccccc2NC1(c1ccccc1)c1c(-c2ccccc2)[nH]c2ccccc12 (configuration not stated) |  |  |  | > 100 |  | > 100 |  | > 100 |  | > 100 |  | > 100 |  | > 100 |  |  | > 100 |  |  | 
COc1cc2c3c(n(CCCNCCCNCCCNCCCN)c(=O)c2cc1OC)-c1cc2c(cc1C3=O)OCO2 | 1.83 | 3.22 | 2.29 | 25.2 | 1.18 | 3.5 | 7.39 | > 100 | 2.05 | 5.22 | 0.301 | 2.16 | 2.31 | 7.68 | 5.8 | 1.29 |  |  | 2.8 | 0.318
CN1C(c2ccccc2)CS(=O)(=O)CS1(=O)=O (configuration not stated) |  |  |  | > 100 |  | > 100 |  | > 100 |  |  |  |  |  | > 100 | > 100 | > 100 |  |  |  | 
CS(=O)(=O)Nc1cccc(-c2cc(-c3ccccc3Cl)c(C#N)c(N)n2)c1 | 0.552 | > 22.2 | 1.22 | 19.9 | 2.38 | 21.4 | 0.984 | 17.4 | 0.344 | > 100 | 0.562 | > 82.4 | 0.803 | 14.4 | 18.5 | 25 |  |  | 1.15 | 3.23
COC1=CC23CCCN2CCc2cc4c(cc2C3C1O)OCO4 (configuration not stated) |  | > 100 |  | > 100 |  | > 100 |  | > 100 |  |  |  | > 100 |  | > 100 | > 100 | > 100 |  |  |  | 
Cc1ccc(NC(=O)C(=O)CC(=O)C2CCOC2=O)c(C)c1 (configuration not stated) |  |  |  | > 100 |  | > 100 |  | > 100 |  | > 100 |  | > 100 |  | > 100 | > 100 | > 100 |  |  |  | 

SMILES | GI50 (NCI/ADR-RES ovarian) [µM] | TGI (NCI/ADR-RES ovarian) [µM] | GI50 (SK-MEL-28 melanoma) [µM] | TGI (SK-MEL-28 melanoma) [µM] | GI50 (EKVX NSCLC) [µM] | TGI (EKVX NSCLC) [µM] | GI50 (UO-31 renal) [µM] | TGI (UO-31 renal) [µM] | GI50 (K-562 leukemia) [µM] | TGI (K-562 leukemia) [µM] | GI50 (CCRF-CEM leukemia) [µM] | TGI (CCRF-CEM leukemia) [µM] | GI50 (786-0 renal) [µM] | TGI (786-0 renal) [µM] | TGI (TK-10 renal) [µM] | TGI (MALME-3M melanoma) [µM] | TGI (SR leukemia) [µM] | GI50 (SR leukemia) [µM] | GI50 (TK-10 renal) [µM] | GI50 (MALME-3M melanoma) [µM]
CC1=C(C(=O)NCc2ccccc2)C(c2ccc([N+](=O)[O-])cc2)C(C(=O)NCc2ccccc2)=C(C)N1 |  |  |  | > 100 |  | > 100 |  | > 100 |  | > 100 |  |  |  | > 100 | > 100 | > 100 |  |  |  | 
COc1ccc(NC(=O)CC/C(CC(=O)C(C)(C)C)=N\NC(=O)C(N)=O)cc1 |  |  |  | > 100 |  | > 100 |  | > 100 |  | > 100 |  | > 100 |  | > 100 |  | > 100 | > 100 |  |  | 
CC(=O)O[C@H]1CCC2[C@@H]3CCC4=C(O)C(=O)C(C#N)C[C@]4(C)C3CC[C@@]21C (some centres not stated) |  |  |  | > 100 |  | > 100 |  | > 100 |  | > 100 |  | > 100 |  | > 100 | > 100 | > 100 |  |  |  | 
O=C(c1ccccc1)c1oc2ccc(Br)cc2c1-c1cnn(-c2ccccc2)c1 |  |  |  | > 100 |  |  |  | > 100 |  | > 100 |  | > 100 |  | > 100 |  | > 100 |  |  |  | 
COC(=O)c1c(O)c([N+](=O)[O-])cc2c1c1c(n2Cc2ccccc2)C(=O)c2ccccc2C1=O | 21.1 | 68.5 | 34.9 | > 100 | 22.9 | 82.9 | 21.1 | > 100 | 19 | 92.6 | 15.8 | > 100 | 15.7 | 59.6 | > 100 | 46 |  |  | 18.7 | 23.4
CN(C)c1ncc(-c2ccc(C(F)(F)F)cc2)c(NC2CCCCCC2)n1 | 22.2 | 80.6 | 19.6 | 60.3 |  |  | 12.6 | 35.2 | 14.6 | 41.1 | 16.4 | 35.8 | 14.8 | 33.4 | > 100 | 40.4 |  |  | 40.6 | 14.4
O=C(Cc1nc2ccccc2s1)C(=O)Nc1cccc(Cl)c1 |  |  |  | > 100 |  | > 100 |  | > 100 |  | > 100 |  | > 100 |  | > 100 | > 100 | > 100 |  |  |  | 
CC(C)C1CC2C(=O)N(c3ccccc3)C(=O)C2c2[nH]c3ccccc3c21 (configuration not stated) |  |  |  | > 100 |  | > 100 |  | 80.4 |  | 18.7 |  | 54.3 |  | > 100 | 97.4 | > 100 |  |  |  | 
Cc1ccccc1C(=O)Oc1ccc(O)cc1 |  |  |  |  |  | > 100 |  | > 100 |  | > 100 |  | > 100 |  | > 100 | > 100 | > 100 |  |  |  | 
O=C(/C=C/C=C/c1c(C2CC2)nc2ccccc2c1-c1ccc(F)cc1)c1cccs1 | 2.62 | > 100 | 3.57 | > 100 | 3.09 | > 100 | 1.16 | 3.05 |  |  | 1.37 | > 100 | 2.76 | > 100 | 32.9 |  |  |  | 4.58 | 
O=C(O)/C(Cl)=C(\Cl)C(=O)NC1C2CC3CC(C2)CC1C3 (configuration not stated) |  |  |  | > 100 |  | > 100 |  | > 100 |  | > 100 |  | > 100 |  | > 100 |  | > 100 | > 100 |  |  | 
COc1cc(O)c2c(c1)C(=O)C=C(Cl)C2=O |  |  |  | > 100 |  | > 100 |  | > 100 |  | > 100 |  | > 100 |  | > 100 | > 100 | > 100 |  |  |  | 
CC(=O)OC1CC2Oc3ccc(C)cc3C(C)(O2)C1=O (configuration not stated) |  |  |  | > 100 |  | > 100 |  | > 100 |  | > 100 |  | > 100 |  | > 100 | > 100 | > 100 |  |  |  | 
OC(COc1ccc(F)cc1)Cn1cnc2c(Cl)ncnc21 (configuration not stated) | > 100 | > 100 | > 100 | > 100 | > 100 | > 100 | > 100 | > 100 |  |  | 50.8 | > 100 | > 100 | > 100 | > 100 | > 100 |  |  | 63.3 | 33.6
O=C(CC1(O)C(=O)Nc2ccccc21)c1ccco1 (configuration not stated) |  |  |  | > 100 |  | > 100 |  | > 100 |  | > 100 |  |  |  | > 100 | > 100 | > 100 |  |  |  | 
O=C(/C=N/O)Nc1cc(Cl)c(Cl)cc1Cl |  | > 100 |  | > 100 |  | 96.9 |  | > 100 |  | > 100 |  | 91.9 |  | > 100 | > 100 | > 100 |  |  |  | 
